Test results: patent US20230278972A1, “SUBSTITUTED HALOALKYL SULFONANILIDE HERBICIDES” (FMC Corporation, priority 2020, published 2023)

Experiments:
Format in all cases: in vivo
[1] = system: barnyardgrass (Echinochloa crus-galli); assay: Test A preemergence, barnyardgrass; conditions: Preemergence; for Barnyardgrass plant response rating: 125 g ai/ha, visual injury on 0 to 100 scale (0 no effect, 100 complete control), approximately 10 days; for Plant response rating, Barnyardgrass: 500 g ai/ha, 0 to 100 scale (0 no effect, 100 complete control)
How it was run: (§1)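 Compounds in non-phytotoxic solvent with surfactant. Soil: loam/sand. Preemergence via directed soil spray after seeding; postemergence on seedlings 2–10 cm, one- to two-leaf.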

[2] = system: kochia (Bassia scoparia); assay: Test A preemergence, kochia; conditions: Preemergence; for Kochia plant response rating: 125 g ai/ha, visual injury on 0 to 100 scale (0 no effect, 100 complete control), approximately 10 days; for Plant response rating, Kochia: 500 g ai/ha, 0 to 100 scale (0 no effect, 100 complete control)
How it was run: as §1

[3] = system: ragweed (common ragweed, Ambrosia artemisiifolia); assay: Test A preemergence, ragweed; conditions: Preemergence; for Ragweed plant response rating: 125 g ai/ha, visual injury on 0 to 100 scale (0 no effect, 100 complete control), approximately 10 days; for Plant response rating, Ragweed: 500 g ai/ha, 0 to 100 scale (0 no effect, 100 complete control)
How it was run: as §1

[4] = system: Ryegrass, Italian (Italian ryegrass, Lolium multiflorum); assay: Test A preemergence, Ryegrass, Italian; conditions: Preemergence; for Ryegrass, Italian plant response rating: 125 g ai/ha, visual injury on 0 to 100 scale (0 no effect, 100 complete control), approximately 10 days; for Plant response rating, Ryegrass, Italian: 500 g ai/ha, 0 to 100 scale (0 no effect, 100 complete control)
How it was run: as §1

[5] = system: Foxtail, Giant (giant foxtail, Setaria faberi); assay: Test A preemergence, Foxtail, Giant; conditions: Preemergence; for Foxtail, Giant plant response rating: 125 g ai/ha, visual injury on 0 to 100 scale (0 no effect, 100 complete control), approximately 10 days; for Plant response rating, Foxtail, Giant: 500 g ai/ha, 0 to 100 scale (0 no effect, 100 complete control)
How it was run: as §1

[6] = system: pigweed (Amaranthus retroflexus); assay: Test A preemergence, pigweed; conditions: for Pigweed plant response rating: 125 g ai/ha, visual injury on 0 to 100 scale (0 no effect, 100 complete control), approximately 10 days; for Plant response rating, Pigweed: 500 g ai/ha, 0 to 100 scale (0 no effect, 100 complete control)
How it was run: (§2)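 Greenhouse pot test in a loam–sand blend; compounds delivered in a non-phytotoxic solvent carrying a surfactant, applied either as a directed spray to soil at seeding or over seedlings 2 to 10 cm high with one to two leaves.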

[7] = system: barnyardgrass (Echinochloa crus-galli); assay: Test A postemergence, barnyardgrass; conditions: Postemergence, 0 to 100 scale (0 no effect, 100 complete control); for Plant response rating, Barnyardgrass: 125 g ai/ha; for Barnyardgrass plant response rating: 500 g ai/ha, visual injury vs untreated controls after approx. 10 days
How it was run: as §2

[8] = system: kochia (Bassia scoparia); assay: Test A postemergence, kochia; conditions: Postemergence, 0 to 100 scale (0 no effect, 100 complete control); for Plant response rating, Kochia: 125 g ai/ha; for Kochia plant response rating: 500 g ai/ha, visual injury vs untreated controls after approx. 10 days
How it was run: as §1

[9] = system: ragweed (common ragweed, Ambrosia artemisiifolia); assay: Test A postemergence, ragweed; conditions: Postemergence, 0 to 100 scale (0 no effect, 100 complete control); for Plant response rating, Ragweed: 125 g ai/ha; for Ragweed plant response rating: 500 g ai/ha, visual injury vs untreated controls after approx. 10 days
How it was run: as §1

[10] = system: Ryegrass, Italian (Italian ryegrass, Lolium multiflorum); assay: Test A postemergence, Ryegrass, Italian; conditions: Postemergence, 0 to 100 scale (0 no effect, 100 complete control); for Plant response rating, Ryegrass, Italian: 125 g ai/ha; for Ryegrass, Italian plant response rating: 500 g ai/ha, visual injury vs untreated controls after approx. 10 days
How it was run: as §1

[11] = system: Foxtail, Giant (giant foxtail, Setaria faberi); assay: Test A postemergence, Foxtail, Giant; conditions: Postemergence, 0 to 100 scale (0 no effect, 100 complete control); for Plant response rating, Foxtail, Giant: 125 g ai/ha; for Foxtail, Giant plant response rating: 500 g ai/ha, visual injury vs untreated controls after approx. 10 days
How it was run: as §1

[12] = system: pigweed (Amaranthus retroflexus); assay: Test A postemergence, pigweed; conditions: Postemergence, 0 to 100 scale (0 no effect, 100 complete control); for Plant response rating, Pigweed: 125 g ai/ha; for Pigweed plant response rating: 500 g ai/ha, visual injury vs untreated controls after approx. 10 days
How it was run: as §1

[13] = system: wheat (Triticum aestivum); assay: Test A postemergence, wheat; conditions: Postemergence, 0 to 100 scale (0 no effect, 100 complete control); for Plant response rating, Wheat: 125 g ai/ha; for Wheat plant response rating: 500 g ai/ha, visual injury vs untreated controls after approx. 10 days
How it was run: as §2

[14] = system: corn (Zea mays); assay: Test A postemergence, corn; conditions: Postemergence, 0 to 100 scale (0 no effect, 100 complete control); for Plant response rating, Corn: 125 g ai/ha; for Corn plant response rating: 500 g ai/ha, visual injury vs untreated controls after approx. 10 days
How it was run: as §1

[15] = system: blackgrass (Alopecurus myosuroides); assay: Test A postemergence, blackgrass; conditions: Postemergence, 0 to 100 scale (0 no effect, 100 complete control); for Plant response rating, Blackgrass: 125 g ai/ha; for Blackgrass plant response rating: 500 g ai/ha, visual injury vs untreated controls after approx. 10 days
How it was run: as §1

[16] = system: galium (catchweed bedstraw, Galium aparine); assay: Test A postemergence, galium; conditions: Postemergence, 0 to 100 scale (0 no effect, 100 complete control); for Plant response rating, Galium: 125 g ai/ha; for Galium plant response rating: 500 g ai/ha, visual injury vs untreated controls after approx. 10 days
How it was run: as §2

SMILES | Barnyardgrass plant response rating [1] | Plant response rating, Barnyardgrass [1] | Kochia plant response rating [2] | Plant response rating, Kochia [2] | Ragweed plant response rating [3] | Plant response rating, Ragweed [3] | Ryegrass, Italian plant response rating [4] | Plant response rating, Ryegrass, Italian [4] | Foxtail, Giant plant response rating [5] | Plant response rating, Foxtail, Giant [5] | Pigweed plant response rating [6] | Plant response rating, Pigweed [6] | Barnyardgrass plant response rating [7] | Kochia plant response rating [8] | Ragweed plant response rating [9] | Ryegrass, Italian plant response rating [10] | Foxtail, Giant plant response rating [11] | Pigweed plant response rating [12] | Wheat plant response rating [13] | Corn plant response rating [14] | other results
Cc1cc(C)c(-n2ncccc2=O)cc1NS(=O)(=O)C(F)(F)F [Compound 83] | 70 | 80 | 60 | 70 | 0 | 20 | 30 | 50 | 10 | 80 | 50 | 90 | 70 | 20 | 60 | 0 | 40 | 50 | 0 | 30 | Plant response rating, Barnyardgrass ([7]; visual injury approx. 10 days): 20; Plant response rating, Kochia ([8]; visual injury approx. 10 days): 0; Plant response rating, Ragweed ([9]; visual injury approx. 10 days): 10; Plant response rating, Ryegrass, Italian ([10]; visual injury approx. 10 days): 0; Plant response rating, Foxtail, Giant ([11]; visual injury approx. 10 days): 0; Plant response rating, Pigweed ([12]; visual injury approx. 10 days): 40; Plant response rating, Wheat ([13]; visual injury approx. 10 days): 0; Plant response rating, Corn ([14]; visual injury approx. 10 days): 0; Plant response rating, Blackgrass ([15]; visual injury approx. 10 days): 0; Blackgrass plant response rating [15]: 0; Plant response rating, Galium ([16]; visual injury approx. 10 days): 60; Galium plant response rating [16]: 80
Cc1cc(C)c(C2=NOC3(CCC(C)(C)CC3)C2)cc1NS(=O)(=O)C(F)(F)F [Compound 163] | 90 | 100 | 0 | 80 | 20 | 60 | 80 | 100 | 50 | 90 | 50 | 100 | 80 | 60 | 30 | 30 | 10 | 80 | 0 | 60 | Plant response rating, Barnyardgrass [7]: 0; Plant response rating, Kochia [8]: 10; Plant response rating, Ragweed [9]: 0; Plant response rating, Ryegrass, Italian [10]: 0; Plant response rating, Foxtail, Giant [11]: 0; Plant response rating, Pigweed [12]: 60; Plant response rating, Wheat [13]: 0; Plant response rating, Corn [14]: 0; Plant response rating, Blackgrass [15]: 20; Blackgrass plant response rating [15]: 30; Plant response rating, Galium [16]: 70; Galium plant response rating [16]: 90
